Reference: patent publication US8551963B2, “Imidazolothiazole compounds and methods of use thereof” (Ambit Biosciences Corporation, priority 2008, dated 2013)
Several values for one entry are separate records, joined by “and”; a condition that tells them apart may be missing. Equal values may be shown once. Entries after “also recorded” stand apart in the source; their conditions may differ. Read-outs that look alike come from different tables or passages of the source.

Experiments:
CYP2C19 = CYP2C19 (Homo sapiens (Human), UniProt P33261); experiment: Inhibitory constant KI in human liver microsomes, CYP2C19; type: in vitro ADME; conditions: for Ki: CYP2C19, global non-linear regression
Procedure: (§1) A 2 mM stock of Compound I-1 was prepared in acetonitrile (ACN) and serially diluted 2-fold from 2000 μM to 15.63 μM in ACN. […] Individual human liver microsome preparations containing the substrate were then incubated with Compound I-1 (final concentration range 40 μM to 0.31 μM of Compound I-1) for a final incubation concentration of 0.5 mg/mL microsome, 75 mM KPO4, 6.5 mM MgCl2, 1 mM NADPH and 2% acetonitrile (ACN). The samples were incubated in a 37° C. shaking water bath for 20 minutes then quenched with ACN:water (75:25) containing internal standards propranolol at 0.3 ng/mL and cortisone at 0.3 ng/mL. After brief mixing, the plate was centrifuged and the supernate removed for analysis by LC/MS/MS (API 4000 Qtrap) for formation of 6-hydroxy-testosterone (CYP3A4), 4-hydroxy-mephenyloin (CYP2C19) or hydroxy-taxol (CYP2C8). The data was analyzed using global non-linear regression software (GraphPad Prism) and the overall fit of the data (R^2) was used to determine if Compound I-1 was a competitive, non-competitive, or uncompetitive inhibitor. In addition the data was plotted as a Lineweaver-Burke graph (1/V versus 1/S, where V is the […] and S is the substrate concentration) for each inhibitor concentration. Based on the location of convergence (competitive and non-competitive) or non convergence (uncompetitive) of the plots at each inhibitor concentration, the type of inhibition was determined.
(§2) Global non-linear regression allows analysis of all the individual inhibitor curves simultaneously and determines the best fit value for shared parameters between the data sets, in this case KI (or KI′). The results of the global nonlinear analysis of Compound I-1 inhibition of the CYP450 isoforms 3A4, 2C19 and 2C8 are shown in Table 12.

P-Glycoprotein = P-Glycoprotein (Homo sapiens (Human), UniProt P08183); experiment: Digoxin bidirectional MDR1-MDCK permeability, Compound I-1 as an inhibitor; conditions: Surf.
Procedure: (§3) MDR1-MDCK cells were grown to confluence for 5-10 days on 1 μm filters in 24-well plate. Aliquots of DMSO solute stocks were diluted into Hank's balanced salt solution (HBSS) pH 7.4 containing 25 mM HEPES+−0.05% PS80 to give 0.5, 1.5 or 5.0 μM solute concentrations. Final concentrations of DMSO in the assayed samples ranged from 0.005% for the 0.5 μM concentration to 0.05% for the 5 μM concentration. […] The solute containing donor solutions were transferred to either the apical or basolateral chamber of the permeability diffusion apparatus. Receiver solutions consisted of Hank's balanced salt solution (HBSS) pH 7.4 containing 25 mM HEPES+0.05% PS80. The entire receiver solution was removed at 20 minute intervals and manually replaced with fresh buffer. The concentration of transported solute during each sampling interval was determined by HPLC/UV/MS. The standard curve was produced from serial dilutions of the dosing solution. D0 was a 50 μl aliquot of dosing solution from the donor well diluted with 450 μl of HBSS. The standard curve was produced from serial dilutions of the dosing solution (1:10, 1:25, 1:50, 1:100, 1:500 and 1:1000). Permeability coefficients were calculated for each sampling interval using the following equation:
(§4) [formula] Where VD=volume of donor (0.4 ml for Ap_Bl flux and 1.0 ml for Bl_Ap flux), A=surface area of the filter on which the monolayer was grown (0.31 cm2), MD(0)=mass in the donor at the beginning of the ith sampling interval, MR (t)=mass in the receiver at time t, and _t is the experimental interval (20 minutes). The apparent permeability, Papp, is then calculated as the average:
(§5) The average and standard deviation from the intervals is reported. Mass balance in the system was ascertained by comparing the sum of total transported solute and remaining donor solute with the starting mass of solute and is expressed as a percentage of donor solute at time zero. […] At the termination of the experiment, the cell monolayers are stored in the cold until the data is analyzed. After analysis, if mass balance falls below 70% in a given experiment, those monolayers are retrieved and extracted with acetonitrile. After separation of cellular debris, the extract is analyzed for recoverable solute of interest. […] All determinations were performed in duplicate.

hERG channel = hERG channel (Homo sapiens (Human), UniProt Q12809); experiment: hERG channel inhibition, whole cell recordings in CHO cells; conditions: 10 μM
Procedure: Test articles in this study were therefore characterized to determine their ability to inhibit the hERG channel. Ion channel activity was measured using a stably transfected Chinese Hamster Ovary (CHO) cell line expressing the hERG mRNA.
A CHO cell line stably expressing hERG channels was obtained from Aviva Systems Biology LLC and used for the study. Cells were cultured in DMEM/F12 containing 10% FBS, 1% penicillin/streptomycin and 500 μg/ml G418. Before testing, cells were harvested using Accumax (Innovative Cell Technologies).
Whole cell recordings were performed using PX 7000A (Axon Instruments) with AVIVA's SealChip™ technology. Cells were voltage clamped at a holding potential of −80 mV. The hERG current was then activated by a depolarizing step to −50 mV for 300 ms. This first step at −50 mV was used as a baseline for measuring peak amplitude of the tail current. Next, a voltage step to +20 mV was applied for 5 s to activate the channels. Finally a step back to −50 mV for 5 s removed activation and the deactivating tail current was recorded.
All compounds were prepared from either 10 or 30 mM DMSO stock solutions. Solutions were mixed by sonication for 20 min, followed by vigorous vortexing. […]
After achieving whole cell configuration, cells were monitored for 90 s to assess stability and then washed with External Solution for 66 s. […]

FLT3 (ITD) = FLT3 (ITD) (Homo sapiens, UniProt P36888, ITD); experiment: biochemical; type: binding
Procedure: (§6) Competition binding assays used herein were developed, validated and performed as described in Fabian et al., Nature Biotechnology 2005, 23, 329-336. Kinases were produced as fusions to T7 phage (See, Fabian et al. or WO04/015142) or alternatively, the kinases were expressed in HEK-293 cells and subsequently tagged with DNA for PCR detection (See, WO08/005,310). […] The liganded beads were blocked with excess biotin and washed with blocking buffer (SeaBlock (Pierce), 1% BSA, 0.05% Tween 20, 1 mM DTT) to remove unbound ligand and to reduce non-specific binding. […] Test compounds were prepared as 100× stocks in DMSO and rapidly diluted into the aqueous environment. DMSO was added to control assays lacking a test compound. […] The kinase concentration in the eluates was measured by quantitative PCR. Each kinase was tested individually against each compound. Kds were determined using eleven serial threefold dilutions.

CYP2D4 = CYP2D4 (Homo sapiens, UniProt P10635); experiment: Cyp enzyme inhibition assay in human liver microsomes, CYP2D4; type: in vitro ADME; conditions: both sexes, pooled human liver microsomes, pH 7.4, probe dextromethorphan, CYP2D4, substrate dextromethorphan
Procedure: The ability of the compound I-1 to inhibit human metabolizing enzymes CYP3A4, CYP2C9, […], CYP2C19 and CYP1A2, was assessed using those enzymes found collectively in human liver microsomes. The test compound I-1 was prepared as a solution in DMSO or acetonitrile and plated in duplicate rows of a 96-well plate (Nunc) for a final assay concentration of 40 μM in 0.2% DMSO (or 2% acetonitrile) in the first column and serially diluted two-fold going down the row. A known selective inhibitor of a given CYP enzyme listed in Table 8 was selected as the appropriate positive control. For each CYP enzyme inhibition assay, an appropriate enzyme-substrate mixture was prepared to afford a final assay concentration of 75 mM KPO4/pH 7.4, 6.5 mM MgCl2, 0.25 mg/mL pooled male and female human liver microsome (CellzDirect lot HMMC-PL020) with the amounts of the appropriate substrate for each CYP enzyme assay given in Table 8. The enzyme-substrate mixture was added to columns 1 through 10 and column 11 served as a negative control with enzyme solution lacking substrate. A solution of NADPH (Calbiochem) was then added to all rows except for one where NADPH would be added after the incubation period, in order to detect NADPH-independent non-CYP-mediated metabolism. The plate was briefly vortexed and left to shake in a 37° C. water bath for 20 minutes. […]

FLT3 (D835Y) = FLT3 (D835Y) (Homo sapiens (Human), UniProt P36888, D835Y); experiment: biochemical; type: binding
Procedure: as §6

MDR1-MDCK cells = experiment: Bidirectional MDR1-MDCK permeability, Compound I-1 as a substrate; conditions: 5 μM, Surf.
Procedure: as §3, §4, §5

P-glycoprotein (MDR1) = experiment: as above; conditions: dog, Surf.
Procedure: as §3, §4, §5

CYP3A4 = CYP3A4 (Homo sapiens (Human), UniProt P08684); experiment: Inhibitory constant KI in human liver microsomes, CYP3A4; type: in vitro ADME; conditions: CYP3A4, global non-linear regression
Procedure: as §1, §2

RS4;11 cells = experiment: RS4;11 cellular proliferation assay (Cell Titer Blue); type: cell-based; conditions: Homo sapiens, RS4-11, 48 h, read-out: EC50 (50% inhibition of cellular proliferation)
Procedure: (§7) Cells were cultured overnight in low serum media with 0.5% FBS. The following day, cells were seeded on to a 96-well plate at 40,000 cells per well at a volume of 100 μL per well.
(§8) CTB reagent was thawed in a 37° C. water bath. 40 μL of CTB reagent was added to the plate containing the cells, and the cells were incubated with the reagent at 37° C. in 5% CO2 for 3 hours. The absorbance was measured at 560 nm (excitation)/590 nm (emission) using Spectramax Plus 384 Absorbance Microplate Reader by Molecular Devices.

FLT3 (D835H) = FLT3 (D835H) (Homo sapiens (Human), UniProt P36888, D835H); experiment: biochemical; type: binding
Procedure: as §6

MV4;11 cells = experiment: MV4;11 cellular proliferation assay (Cell Titer Blue); type: cell-based; conditions: Homo sapiens, MV4-11, 72 h, read-out: EC50 (50% inhibition of cellular proliferation)
Procedure: as §7, §8

[1] = read-out: Best Fit KI, Competitive
[2] = read-out: Best Fit KI, Non-competitive
[3] = read-out: Best Fit KI′, Uncompetitive
[4] = Table 17, Digoxin 1 μM + Compound I-1 5.0 μM
[5] = preliminary experiment, Digoxin 1 μM + Compound I-1 0.5 μM
[6] = preliminary experiment, Digoxin 1 μM + Compound I-1 1.5 μM
[7] = preliminary experiment, Digoxin 1 μM + Compound I-1 5.0 μM

P-Glycoprotein, sequence (P08183 whole entry): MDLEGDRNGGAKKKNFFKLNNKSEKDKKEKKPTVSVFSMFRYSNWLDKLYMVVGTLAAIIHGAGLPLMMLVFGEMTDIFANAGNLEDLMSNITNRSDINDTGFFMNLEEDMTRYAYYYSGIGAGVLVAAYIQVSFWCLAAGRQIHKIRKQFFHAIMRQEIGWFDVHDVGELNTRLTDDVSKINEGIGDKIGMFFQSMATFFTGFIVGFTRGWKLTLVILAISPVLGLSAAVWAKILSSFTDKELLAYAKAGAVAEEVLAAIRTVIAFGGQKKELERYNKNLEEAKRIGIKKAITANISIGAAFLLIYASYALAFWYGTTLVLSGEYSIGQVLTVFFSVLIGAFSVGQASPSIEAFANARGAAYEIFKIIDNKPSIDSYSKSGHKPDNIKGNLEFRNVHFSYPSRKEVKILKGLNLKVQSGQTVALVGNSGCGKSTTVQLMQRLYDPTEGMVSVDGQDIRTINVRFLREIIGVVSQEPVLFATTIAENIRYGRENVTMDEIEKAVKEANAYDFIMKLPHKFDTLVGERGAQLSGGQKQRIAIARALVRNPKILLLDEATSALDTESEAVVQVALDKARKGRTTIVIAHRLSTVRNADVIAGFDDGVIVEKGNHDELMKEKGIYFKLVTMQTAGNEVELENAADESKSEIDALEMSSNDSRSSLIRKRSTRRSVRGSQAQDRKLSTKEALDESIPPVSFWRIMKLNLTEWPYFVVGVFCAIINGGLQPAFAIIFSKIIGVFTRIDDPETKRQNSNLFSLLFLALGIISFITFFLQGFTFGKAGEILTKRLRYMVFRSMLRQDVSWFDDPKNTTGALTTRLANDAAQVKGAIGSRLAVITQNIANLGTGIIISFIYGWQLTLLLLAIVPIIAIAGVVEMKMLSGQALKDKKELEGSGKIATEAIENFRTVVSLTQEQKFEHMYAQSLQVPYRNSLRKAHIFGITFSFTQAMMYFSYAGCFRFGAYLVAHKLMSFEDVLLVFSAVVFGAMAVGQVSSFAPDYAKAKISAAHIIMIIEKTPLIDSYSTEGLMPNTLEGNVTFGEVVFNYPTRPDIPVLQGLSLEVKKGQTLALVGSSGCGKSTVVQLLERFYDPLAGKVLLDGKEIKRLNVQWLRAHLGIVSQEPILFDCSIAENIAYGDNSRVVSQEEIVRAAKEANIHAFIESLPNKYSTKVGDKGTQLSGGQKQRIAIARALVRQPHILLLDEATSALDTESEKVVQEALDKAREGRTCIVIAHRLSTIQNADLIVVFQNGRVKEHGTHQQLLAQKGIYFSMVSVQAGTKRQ
CYP3A4, sequence (P08684 whole entry): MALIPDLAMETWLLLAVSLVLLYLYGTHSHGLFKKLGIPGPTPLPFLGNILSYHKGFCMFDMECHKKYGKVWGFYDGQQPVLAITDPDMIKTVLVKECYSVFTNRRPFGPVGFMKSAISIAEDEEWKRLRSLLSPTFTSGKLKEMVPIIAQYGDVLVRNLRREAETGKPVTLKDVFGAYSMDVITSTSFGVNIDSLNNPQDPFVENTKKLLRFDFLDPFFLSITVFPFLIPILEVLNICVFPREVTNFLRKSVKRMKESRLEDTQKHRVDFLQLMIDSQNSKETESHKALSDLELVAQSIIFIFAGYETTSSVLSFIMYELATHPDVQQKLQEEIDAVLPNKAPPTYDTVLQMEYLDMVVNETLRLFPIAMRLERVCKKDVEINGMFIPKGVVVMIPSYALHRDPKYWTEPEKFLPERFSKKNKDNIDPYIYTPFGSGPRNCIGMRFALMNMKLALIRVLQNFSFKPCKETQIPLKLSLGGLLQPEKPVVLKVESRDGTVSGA
CYP2C19, sequence (P33261 whole entry): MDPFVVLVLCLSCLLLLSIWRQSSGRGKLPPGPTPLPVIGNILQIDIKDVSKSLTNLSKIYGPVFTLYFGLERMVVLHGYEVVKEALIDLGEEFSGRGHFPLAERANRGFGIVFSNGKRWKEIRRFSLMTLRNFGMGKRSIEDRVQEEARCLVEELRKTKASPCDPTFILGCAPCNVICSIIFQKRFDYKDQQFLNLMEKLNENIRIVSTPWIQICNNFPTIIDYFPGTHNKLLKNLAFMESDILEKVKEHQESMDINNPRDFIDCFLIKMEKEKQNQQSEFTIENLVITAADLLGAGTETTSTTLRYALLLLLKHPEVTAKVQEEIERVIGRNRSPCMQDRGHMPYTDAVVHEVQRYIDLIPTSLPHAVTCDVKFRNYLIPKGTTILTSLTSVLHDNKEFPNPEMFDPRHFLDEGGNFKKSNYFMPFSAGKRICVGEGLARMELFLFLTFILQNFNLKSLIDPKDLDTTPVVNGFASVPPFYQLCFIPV
hERG channel, sequence (Q12809 whole entry): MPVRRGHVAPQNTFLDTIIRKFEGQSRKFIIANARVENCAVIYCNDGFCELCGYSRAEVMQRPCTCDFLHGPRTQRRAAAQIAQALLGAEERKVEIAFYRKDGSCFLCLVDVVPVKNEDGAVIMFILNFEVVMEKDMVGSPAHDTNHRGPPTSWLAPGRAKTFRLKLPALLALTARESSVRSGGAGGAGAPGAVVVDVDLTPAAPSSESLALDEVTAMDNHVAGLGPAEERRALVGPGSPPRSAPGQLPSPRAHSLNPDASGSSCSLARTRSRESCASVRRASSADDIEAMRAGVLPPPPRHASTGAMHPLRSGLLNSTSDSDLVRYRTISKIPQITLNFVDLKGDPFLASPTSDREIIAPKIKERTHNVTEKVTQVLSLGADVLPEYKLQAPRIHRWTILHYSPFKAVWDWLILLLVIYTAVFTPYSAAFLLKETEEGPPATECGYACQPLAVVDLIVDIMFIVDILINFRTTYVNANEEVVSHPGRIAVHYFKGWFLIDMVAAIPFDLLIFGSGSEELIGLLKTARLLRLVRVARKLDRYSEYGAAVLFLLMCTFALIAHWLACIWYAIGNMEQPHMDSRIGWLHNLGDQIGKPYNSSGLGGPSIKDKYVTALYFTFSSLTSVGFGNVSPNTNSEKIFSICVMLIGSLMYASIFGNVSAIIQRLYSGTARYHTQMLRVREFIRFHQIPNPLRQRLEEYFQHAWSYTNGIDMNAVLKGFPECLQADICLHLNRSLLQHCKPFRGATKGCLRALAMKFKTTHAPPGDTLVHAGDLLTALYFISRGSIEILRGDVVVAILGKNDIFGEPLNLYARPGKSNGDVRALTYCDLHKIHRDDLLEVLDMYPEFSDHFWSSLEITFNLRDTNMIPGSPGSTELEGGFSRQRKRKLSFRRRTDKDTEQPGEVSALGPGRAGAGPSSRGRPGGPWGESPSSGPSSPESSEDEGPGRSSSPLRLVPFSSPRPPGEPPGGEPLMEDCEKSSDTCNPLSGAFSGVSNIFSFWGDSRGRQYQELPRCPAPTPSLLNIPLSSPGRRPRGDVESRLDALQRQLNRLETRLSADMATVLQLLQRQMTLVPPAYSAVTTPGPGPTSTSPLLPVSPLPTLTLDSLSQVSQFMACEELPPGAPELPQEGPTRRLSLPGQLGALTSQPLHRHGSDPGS
CYP2D4, sequence (P10635 whole entry, looked up): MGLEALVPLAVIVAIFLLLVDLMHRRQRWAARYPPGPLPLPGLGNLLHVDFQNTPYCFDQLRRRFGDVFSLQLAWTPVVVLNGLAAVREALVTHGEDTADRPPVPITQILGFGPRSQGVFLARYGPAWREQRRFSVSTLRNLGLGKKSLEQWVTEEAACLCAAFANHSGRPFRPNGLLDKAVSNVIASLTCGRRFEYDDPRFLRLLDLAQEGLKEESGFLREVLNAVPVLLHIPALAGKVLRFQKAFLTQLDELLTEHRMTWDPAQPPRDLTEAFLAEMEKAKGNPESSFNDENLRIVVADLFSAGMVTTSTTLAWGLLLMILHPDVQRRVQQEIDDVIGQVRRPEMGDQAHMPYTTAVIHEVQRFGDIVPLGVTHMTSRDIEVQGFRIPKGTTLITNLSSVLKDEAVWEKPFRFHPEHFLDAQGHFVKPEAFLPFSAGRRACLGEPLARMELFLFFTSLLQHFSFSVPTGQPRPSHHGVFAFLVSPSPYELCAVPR

**Q.** Which results are given for `CC(C)(CO)c1cc(NC(=O)Nc2ccc(-c3cn4c(n3)sc3cc(OCCN5CCOCC5)ccc34)cc2)no1` [Compound I-1, 1-[5-(2-hydroxy-1,1-dimethyl-ethyl)-isoxazol-3-yl]-3-{4-[7-(2-morpholin-4-yl-ethoxy)-benzo[d]imidazo[2,1-b]thiazol-2-yl]-phenyl}-urea]?
**A.** Type of inhibition (CYP2C19; CYP2C19): non-competitive inhibition; also recorded: weak non-competitive inhibitor; Ki (CYP2C19; [1]): 1.7 µM; Ki (CYP2C19; [2]): 10.4 µM; Ki (CYP2C19; [3]): 7.4 µM; Digoxin Mass Bal (AP→BL) (P-Glycoprotein; [4]): 104%; Digoxin Mass Bal (BL→AP) (P-Glycoprotein; [4]): 98%; Digoxin Mass Bal (AP→BL) (P-Glycoprotein; [5]): 98%; Digoxin Mass Bal (BL→AP) (P-Glycoprotein; [5]): 91%; Digoxin Mass Bal (AP→BL) (P-Glycoprotein; [6]): 98%; Digoxin Mass Bal (BL→AP) (P-Glycoprotein; [6]): 94%; Digoxin Mass Bal (AP→BL) (P-Glycoprotein; [7]): 93%; Digoxin Mass Bal (BL→AP) (P-Glycoprotein; [7]): 99%; % Block Trial 1 (hERG channel): <10%; % Block Trial 2 (hERG channel): <10%; Kd (FLT3 (ITD)): 0.0088 µM; IC50 at 20 min (CYP2D4): > 40 µM; Kd (FLT3 (D835Y)): 0.0055 µM; Assymetry Index (MDR1-MDCK cells): 1.7; PeAP→BL (MDR1-MDCK cells): 2.81 ×10⁻⁶ cm/s; PeBL→AP (MDR1-MDCK cells): 6.31 ×10⁻⁶ cm/s and 4.67 ×10⁻⁶ cm/s; efflux ratio at 5 μM (P-glycoprotein (MDR1); MDCK-MDR1, pH 7.4, Assymetry Index): 1.2; Papp A→B at 5 μM (P-glycoprotein (MDR1); MDCK-MDR1, pH 7.4, PeAP→BL): 5.1 ×10⁻⁶ cm/s; Ki (CYP3A4; [1]): 13.1 µM; Ki (CYP3A4; [2]): 48.9 µM; Ki (CYP3A4; [3]): 36 µM; EC50 (RS4;11 cells): 0.002 µM; Kd (FLT3 (D835H)): 0.0019 µM; EC50 (MV4;11 cells): 0.0003 µM
